Experimental data reported in US6413982B1, “4-substituted quinoline derivatives” (Neurogen Corporation, priority 1999, dated 2002).

Target: T1, NK-3 receptor (Homo sapiens, UniProt P29371)
T1 construct: expressed in transfected cells; total cellular membranes
T1 sequence (P29371 1-465): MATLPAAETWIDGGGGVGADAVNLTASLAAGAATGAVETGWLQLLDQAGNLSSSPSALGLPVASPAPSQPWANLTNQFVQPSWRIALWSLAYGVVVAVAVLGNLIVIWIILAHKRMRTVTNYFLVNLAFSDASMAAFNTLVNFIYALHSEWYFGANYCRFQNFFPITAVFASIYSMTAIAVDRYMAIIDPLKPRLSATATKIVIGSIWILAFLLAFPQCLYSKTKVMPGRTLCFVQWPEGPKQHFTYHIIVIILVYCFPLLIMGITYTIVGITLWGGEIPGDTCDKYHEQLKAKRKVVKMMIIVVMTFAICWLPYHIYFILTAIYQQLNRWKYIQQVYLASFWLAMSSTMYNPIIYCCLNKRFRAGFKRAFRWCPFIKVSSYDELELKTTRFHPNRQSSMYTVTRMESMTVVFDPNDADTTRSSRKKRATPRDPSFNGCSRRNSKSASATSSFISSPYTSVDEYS
Experiment: Assay for NK-3 receptor binding activity
Conditions: displacement of 125I-methylPhe7-neurokinin B, membranes of CHO cells expressing cloned human NK-3 receptor, 2 hours at 4° C.
Procedure: The following assay is a standard assay for NK-3 receptor binding activity. Assays are performed as described in Krause et al (Proc. Natl. Acad. Sci. USA 94: 310-315, 1997). The NK-3 receptor complementary DNA is cloned from human hypothalamic RNA using standard procedures. The receptor cDNA is inserted into the expression vector pM^2 to transfect the mammalian Chinese hamster ovary cell line, and a stably expressing clonal cell line is isolated, characterized and used for the current experiments. Cells are grown in minimal essential medium alpha containing 10% fetal bovine serum and 250 μg/ml G418. Cells are liberated from cell culture plates with No-zyme (PBS base, JRH Biosciences), and harvested by low speed centrifugation. […]
Receptor binding assays contain a total volume of 200 μl containing 50 μg membrane protein, 0.05-0.15 nM 125I-methylPhe7-neurokinin B, drug or blocker in TBS containing 1.0 mg/ml bovine serum albumen, 0.2 mg/ml bacitracin, 20 μg/ml leupeptin and 20 μg/ml chymostatin. […] After filtration of the incubation mixture, filters are rinsed 4 times with ice-cold TBS containing 0.01% sodium dodecyl sulfate and radioactivity is quantitated in a β-plate scintillation counter. […] Data are collected in duplicate determinations, averaged, and the percent inhibition of total specific binding is calculated. […]

Structure (SMILES)	IC50
CCC1(c2ccccc2)CN=C(c2c(OC)c(-c3ccccc3)nc3ccccc23)N1 (centres unmarked) [Example 1, 5-Ethyl-5-phenyl-2-(3-methoxy-2-phenylquinolin-4-yl)-imidazoline]	19 nM
CCC1(c2ccccc2)CN=C(c2c(C)c(-c3ccccc3)nc3ccccc23)N1 (centres unmarked) [Example 2]	0.3 nM
